The values that follow come from publication PMC8724172, “The effect of potent CYP2D6 inhibition on the pharmacokinetics and safety of deutetrabenazine in healthy volunteers” (European Journal of Clinical Pharmacology, 2021).

Molecules are shown by their SMILES.

For data set [1] the following is noted: cited from earlier work.
Data set [2] in a line: Open-label sequential drug-drug interaction study: plasma pharmacokinetics of deutetrabenazine and its metabolites without and with steady-state paroxetine. Particulars: for % Ratio of LS means (90% CI) (day 11)/(day 1), AUC0−t / % Ratio of LS means (90% CI) (day 11)/(day 1), AUC0−∞ / % Ratio of LS means (90% CI) (day 11)/(day 1), Cmax: deutetrabenazine + paroxetine vs deutetrabenazine alone. The text has this: This was an open-label sequential drug-drug interaction study in 24 healthy adult subjects who were CYP2D6 extensive metabolizers (EM) or CYP2D6 intermediate metabolizers (IM); Supplemental Table S1 provides the genotypes and phenotypes of the subjects.
Subjects checked into the clinic on day 1 and were confined through day 14. […] Those who met inclusion/exclusion criteria received a single dose of deutetrabenazine on day 1 followed by a 72-h washout. Subjects then received paroxetine on days 4 to 12 to achieve steady-state plasma concentrations of paroxetine by day 11. On day 11, another single dose of deutetrabenazine was administered. Triplicate 12-lead digital electrocardiograms (ECGs) were collected predose and for 10 h following deutetrabenazine dosing on day 1, and for 10 h on day 11, following paroxetine administration on day 10. Blood samples for measurement of plasma concentrations of deutetrabenazine and its metabolites were obtained on days 1 and 11 (predose, 1, 2, 2.5, 3, 3.5, 4, 4.5, 5, 6, 7, 8, 10, 12, and 16 h), days 2 and 12, at 24 and 36 h, days 3 and 13, at 48 and 60 h and days 4 and 14, at 72 h. Paroxetine trough levels were obtained pre-dose on days 9, 10, 11, and 12, and on day 13 at 24 h post the final paroxetine dose on day 12. Blood and urine samples were collected for clinical laboratory testing (hematology, serum chemistries, and urinalysis) at admission and after at least 10 h fasting and at study completion on day 14 or upon early withdrawal.
All participants received the following treatments, deutetrabenazine 22.5-mg oral dose as one 15-mg tablet + one 7.5-mg tablet on days 1 and 11 and one paroxetine 20 mg (Cadila Healthcare Ltd.) oral tablet on days 4 through 12. The deutetrabenazine 22.5-mg dose was administered with 237 mL of water in the morning approximately 30 min after a standardized breakfast meal with moderate fat content (35%). No food was allowed for at least 4 h postdose, and subjects were asked to remain upright for at least 4 h postdose, unless medically necessary.
Paroxetine 20 mg was administered in the morning with 237 mL water for 9 days (days 4 to 12) to ensure steady-state levels. On days 4 to 10 and 12, the paroxetine dose was administered in a fed state 30 min after breakfast. On day 11, as paroxetine can be administered without regard to food, subjects took the paroxetine dose under fasting conditions (at least 1 h prior to breakfast and 1.5 h prior to deutetrabenazine administration) following an overnight fast of at least 10 h. Subjects were asked to remain upright for at least 1 h after the paroxetine dose, unless medically necessary.
Validated liquid chromatography/tandem mass spectrometry methods were applied to assess plasma concentrations of paroxetine, deutetrabenazine, α- and β-HTBZ metabolites, and the O-desmethyl metabolites of α- and β-HTBZ. This was performed on a Sciex API 4000 instrument, equipped with a Turbo Ion Spray ion source operated in the positive ion mode and interfaced to a Shimadzu HPLC system fitted with a Waters XBridge C18 reverse phase column (3.5 µm; 50 × 2.1 mm) for paroxetine, deutetrabenazine, α-HTBZ and β-HTBZ or a Phenomenex Kinetex column (2.6 µm; 100 × 2.1 mm) for the O-desmethyl metabolites. The validated assay ranges were as follows: paroxetine 0.500 to 50.0 ng/mL, deutetrabenazine 0.100 to 10.0 ng/mL, deuterated α- and β-HTBZ 0.500 to 100 ng/mL, and 9-O- and 10-O-desmethyl metabolites of α-HTBZ and β-HTBZ 0.5 to 50.0 ng/mL. The methods were developed and validated by CPR Pharma Services, Pty, Ltd Australia, as described earlier.
Plasma concentrations, below the limit of quantitation (BLQ) of the assay, were designated a value of zero for initial and time points occurring at the end of the profile. For sampling time points between two quantifiable concentrations, plasma concentrations BLQ followed by a measurable concentration were set to the limit of quantitation of the assay.

Where [3] appears, read: Subjects with EM phenotype (n = 15).
The mark [4] stands for this setting: Subjects with IM phenotype (n = 8).
The mark [5] stands for this setting: population of 15 EM and 8 IM, deutetrabenazine 22.5 mg, steady-state paroxetine 20 mg daily vs alone.

`COc1cc2c(cc1OC)[C@@H]1C[C@H](O)[C@@H](CC(C)C)CN1CC2` [α-HTBZ]: the “Increase in exposure with paroxetine” value in data set [1] (after tetrabenazine administration) is given as “threefold”. Further, the “Increase of Cmax with paroxetine” value in data set [1] (paroxetine administered with tetrabenazine) was 1.3 fold. Besides, in data set [2] (All subjects (n = 23)), the “% Ratio of LS means (90% CI) (day 11)/(day 1), AUC0−t” value (“% Ratio of LS means (90% CI) … AUC0−t” for short) is given as 163.3 (148.3–179.8) %; the “% Ratio of LS means (90% CI) (day 11)/(day 1), AUC0−∞” value (from here on “% Ratio of LS means (90% CI) … AUC0−∞”) is reported as 169.8 (153.8–187.5) %; the “% Ratio of LS means (90% CI) (day 11)/(day 1), Cmax” value (from here on “% Ratio of LS means (90% CI) … Cmax”) is on record as 106.3 (90.0–125.4) %. In data set [2] (setting [3]), the “% Ratio of LS means (90% CI) … AUC0−t” value was 181.6 (162.4–302.0) %; the “% Ratio of LS means (90% CI) … AUC0−∞” value is listed as 185.0 (165.8–206.4) %; the “% Ratio of LS means (90% CI) … Cmax” value was 119.9 (108.1–132.9) %. Also, in data set [2] (setting [4]), the “% Ratio of LS means (90% CI) … AUC0−t” value is given as 192.2 (162.9–226.8) %; the “% Ratio of LS means (90% CI) … AUC0−∞” value was 193.6 (164.4–228.0) %; the “% Ratio of LS means (90% CI) … Cmax” value is reported as 127.8 (111.8–146.1) %. In data set [2] (deutetrabenazine 22.5 mg, steady-state paroxetine vs alone), the “Increase of half-life (t1/2) in presence of paroxetine” value was determined as 1.5 fold. The Cmax in data set [2] (human, in vivo) is given as 35.8 (21) ng/mL. Also, in data set [2] (human, in vivo, im), the “AUC0–∞” value was 546 (22) ng × h/mL, the Cmax is 40.5 (22) ng/mL, the Tmax was 4.0 (2.0–7.0) h and the t1/2 is recorded as 13.0 (23) h. Moreover, the Cmax in data set [2] (human, in vivo, po, 22.5 mg) is reported as 37.4 (22) ng/mL. In data set [2] (setting [5]), the “Increase of AUC0–∞ in presence of paroxetine” value is 1.8 fold and the “Increase of Cmax in presence of paroxetine” value is given as 1.2 fold.
